Measurements reported in US5545547A, “Enzymes as agricultural chemical adjuvants” (priority 1992, dated 1996).
Values belong to the compound of their own block, whether it stands above or below them.

Tests used:
[1] = tested on: soybean leaf discs; assay: Uptake of radiolabeled agricultural chemicals into leaf discs; type: in vitro ADME
Experimental: Leaf discs (1 cm diameter) were prepared from 9-13 day old soybean plants, and planed them on a nitrocellulose paper that was presoaked with 100 ug/ml stocptomycin in a petri dish. Radioactive chemicals were dissolved in 100 mM sodium phosphate buffer containing 0.05% TRITON X-100 surfactant [drawing 1] where n is an integer from 9 to 10 In addition to TRITON surfactant, (^14 C) uracil solution contained 0.4% ethanol, (^14 C) atrazine contained 10% ethanol (^14 C) indole acetic acid contained 2% ethanol and (^14 C) urea contained 0.2% ethanol. 5 ul of the radioactive chemical solution (9/uci/ml) was applied on the leaf disc and incubated for 5-7 hr at room temperature. After the incubation, leaf discs were rinsed 3 times with 0.025% TRITON X-100 surfactant solution and transferred into separate scintillation vials. Radioactivity taken up by each leaf disc was determined by a scintillation counter after adding 10 ml of Ecolite scintillation fluid into each vial. Ten leaf discs were used for each data point in all experiments. All radioactive chemicals were obtained from Amersham (U.S.A.). The specific activities of the chemicals were as follows:
Cutinase enzyme same as before.
Macerating enzyme, GC219, is an enzyme mixture sold by Genencor which comprises of cellulase, pectinase and hemicellulase.

[2] = tested on: Soybeans; assay: Greenhouse multispecies herbicide screen with/without P. mendocina enzyme; type: in vivo; details: two weeks after treatment
Description: (§1) Several plant species including weeds and crops are used in these experiments.
(§2) A number of herbicides from various chemical classes were compared in a multispecies screen for percent chlorosis, necrosis and vigor reduction both with and without application of the enzyme from Pseudomonas mendocina ATCC 53552 described earlier. The herbicides were applied to various plants at the manufacturers recommended doses and at 10% and 40% of the recommended dose. Two different enzyme concentrations were used: 0.5 mg/ml (HE) and 0.05 mg/ml (LE) and applied at the rate of 40 gallons/acre. All spraying solutions were at pH 10 and contained 100 mm sodium phosphate each. Ratings were done at 6 and 12 days after the treatment. All the experiments were carried out in a greenhouse.
(§3) Chlorosis--figures represent percent of plants showing chlorosis.
(§4) Necrosis--figures represent percent of plants showing necrosis.
(§5) Vigor--figures represent percent of plants showing decreased vigor.
(§6) Phytotoxicity--figures represent the average percent of chlorosis, necrosis, and vigor for a given sample.
(§7) The method of Example 1 was used except that the enzyme was applied 2 hours prior to administering the agricultural chemical with the following results. Ratings were done two weeks after treatment

[3] = tested on: Turnip; assay: as above; type: in vivo; details: two weeks after treatment
Description: as §1, §2, §3, §4, §5, §6, §7

[4] = tested on: Trichoderma reesei QM6A; assay: Fungicide uptake in soybean plants, leaf extract rated for inhibition of fungal growth; parameters: key: -no inhibition; +weak inhibition; ++=good inhibition; +++=strong inhibition
Experimental: The difoliate leaflets of 9-13 day old soybeam plants were treated with solutions of cutinase (100 ug/ml), BENOMYL fungicide [1-(butylcarbamoyl)-2-benzimidazolecarbamic acid methyl ester] (1 mg/ml), and GC219 (12.6 mg/ml) alone and BENOMYL fungicide [1-(butylcarbamoyl)-2-benzimidazolecarbamic acid methyl ester] plus enzymes. The solutions were dissolved in 100 mM sodium phosphate, pH 7 containing 0.5% TRITON surfactant [drawing 2] where n is an integer from 9 to 10 X-100. In addition to TRITON X-100 surfactant, [drawing 3] where n is an integer from 9 to 10 the BENOMYL fungicide [1-(butylcarbamoyl)-2-benzimidazolecarbamic acid methyl ester] contained 5% Dimethyl formamide. For each experiment 100 ul of solution was applied in 5 ul droplets to each difoliate leaflet. Duplicate plants were treated in this manner. The treated plants were incubated for two hours under normal greenhouse conditions. Identical solutions as those applied to the plants were also incubated for two hours to assure chemical stability under greenhouse conditions. After the incubation, the treated leaves were cut at the petiole and rinsed with a 0.05% TRITON X-100 surfactant [drawing 4] where n is an integer from 9 to 10 solution. Both difoliates were then ground with a mortar and pestle with 1.5 ml of a 100 mM sodium phosphate, pH 7 buffer. The extract was centrifuged and the supernatant was sterile filtered through a 0.45 um disc. The supernatant was then added to CMA media containing 2% agar to yield a final volume of 10 mls. 5 mls was them poured into a single well in a 6 well culture plate. Serial dilutions were made for each solution to achieve 1:1, 1:2 and 1:4 dilution of the plant extract in the agar.
Once the agar was solidified each well was innoculated with spores of Trichoderma reesei QM6A strain. The plates were incubated at 30° C. for 24 hours and the growth of T. reesei was rated.

[5] = tested on: Pseudomonas mendocina ATCC 53552 lipase, crude preparation of Example 1(C) (includes Lipase 1 and Lipase 2); assay: Binding of p-nitrophenyl substrates and turnover kinetics, crude lipase preparation; type: biochemical; details: 0.1M Tris, 0.1 wt. Triton X-100, pH 8.0, 25° C.
Description: The recovered filtrate from the Amicon unit was concentrated to a volume of 3 liters on an Amicon ultrafiltration unit with two Romicon Pm 10 modules. The concentrated material was then dialyzed with 20 liters of 0.01M phosphate buffer, pH 7.5, to remove salts and color. Recovery at this stage averaged about 80%. Total activity for this crude preparation was 8.68×10^6 units. A unit of lipase activity is defined as the amount of enzyme which results in an increase of absorbance at 415 nm of 1.0/minute when incubated at 25° C. with 2.0 mM p-nitrophenylbutyrate in 0.1M pH 8.0 Tris-HCl buffer containing 0.1 wt. adjuvant Triton X-100.
The binding of three p-nitrophenyl substrates and the turnover kinetics were studied for the crude preparation of Example 1(C), where reaction conditions were 0.1M Tris with 0.1 wt. adjuvant Triton X-100, pH 8.0, at 25° C. The substrates were p-nitrophenyl caprylate, p-nitrophenyl laurate, and p-nitrophenyl palmitate, and the data is set out in Table

SMILES: CCNc1nc(Cl)nc(NC(C)C)n1 [ATRAZINE, Atrazine]
- Uptake, Radioactivity (cpm) ([1]; Herbicide table, atrazine, without any addition of protein): 24007 ± 3984 cpm
- Uptake, Radioactivity (cpm) ([1]; Herbicide table, pH 7.0, Cutinase 100 ug/ml, Active Enzyme): 42684 ± 2333 cpm
- Uptake, Radioactivity (cpm) ([1]; Herbicide table, pH 7.0, Cutinase 100 ug/ml, Inactive Protein Control (A126)): 24832 ± 2834 cpm
- Uptake, Radioactivity (cpm) ([1]; Herbicide table, pH 7.0, Cutinase 200 ug/ml, Active Enzyme): 54133 ± 2874 cpm
- Uptake, Radioactivity (cpm) ([1]; Herbicide table, pH 7.0, Cutinase 200 ug/ml, Inactive Protein Control (A126)): 31097 ± 2959 cpm
- CHL (chlorosis) ([2]; ATRAZINE 10% dose, High Enzyme): 55%
- NEC (necrosis) ([2]; ATRAZINE 10% dose, High Enzyme): 18%
- PHY (phytotoxicity) ([2]; ATRAZINE 10% dose, High Enzyme): 12%
- VIG (vigor) ([2]; ATRAZINE 10% dose, High Enzyme): 13%
- CHL (chlorosis) ([2]; ATRAZINE 10% dose, Low Enzyme): 38%
- NEC (necrosis) ([2]; ATRAZINE 10% dose, Low Enzyme): 58%
- PHY (phytotoxicity) ([2]; ATRAZINE 10% dose, Low Enzyme): 48%
- VIG (vigor) ([2]; ATRAZINE 10% dose, Low Enzyme): 48%
- CHL (chlorosis) ([2]; ATRAZINE 10% dose, No Enzyme): 10%
- NEC (necrosis) ([2]; ATRAZINE 10% dose, No Enzyme): 33%
- PHY (phytotoxicity) ([2]; ATRAZINE 10% dose, No Enzyme): 34%
- VIG (vigor) ([2]; ATRAZINE 10% dose, No Enzyme): 50%
- CHL (chlorosis) ([2]; ATRAZINE 40% dose, High Enzyme): 80%
- NEC (necrosis) ([2]; ATRAZINE 40% dose, High Enzyme): 88%
- PHY (phytotoxicity) ([2]; ATRAZINE 40% dose, High Enzyme): 85%
- VIG (vigor) ([2]; ATRAZINE 40% dose, High Enzyme): 88%
- CHL (chlorosis) ([2]; ATRAZINE 40% dose, Low Enzyme): 100%
- NEC (necrosis) ([2]; ATRAZINE 40% dose, Low Enzyme): 100%
- PHY (phytotoxicity) ([2]; ATRAZINE 40% dose, Low Enzyme): 100%
- VIG (vigor) ([2]; ATRAZINE 40% dose, Low Enzyme): 100%
- CHL (chlorosis) ([2]; ATRAZINE 40% dose, No Enzyme): 55%
- NEC (necrosis) ([2]; ATRAZINE 40% dose, No Enzyme): 63%
- PHY (phytotoxicity) ([2]; ATRAZINE 40% dose, No Enzyme): 58%
- VIG (vigor) ([2]; ATRAZINE 40% dose, No Enzyme): 55%
- CHL (chlorosis) ([3]; ATRAZINE 10% dose, High Enzyme): 25%
- NEC (necrosis) ([3]; ATRAZINE 10% dose, High Enzyme): 25%
- PHY (phytotoxicity) ([3]; ATRAZINE 10% dose, High Enzyme): 25%
- VIG (vigor) ([3]; ATRAZINE 10% dose, High Enzyme): 25%
- CHL (chlorosis) ([3]; ATRAZINE 10% dose, Low Enzyme): 50%
- NEC (necrosis) ([3]; ATRAZINE 10% dose, Low Enzyme): 38%
- PHY (phytotoxicity) ([3]; ATRAZINE 10% dose, Low Enzyme): 46%
- VIG (vigor) ([3]; ATRAZINE 10% dose, Low Enzyme): 50%
- CHL (chlorosis) ([3]; ATRAZINE 10% dose, No Enzyme): 38%
- NEC (necrosis) ([3]; ATRAZINE 10% dose, No Enzyme): 23%
- PHY (phytotoxicity) ([3]; ATRAZINE 10% dose, No Enzyme): 37%
- VIG (vigor) ([3]; ATRAZINE 10% dose, No Enzyme): 50%
- CHL (chlorosis) ([3]; ATRAZINE 40% dose, High Enzyme): 75%
- NEC (necrosis) ([3]; ATRAZINE 40% dose, High Enzyme): 88%
- PHY (phytotoxicity) ([3]; ATRAZINE 40% dose, High Enzyme): 84%
- VIG (vigor) ([3]; ATRAZINE 40% dose, High Enzyme): 88%
- CHL (chlorosis) ([3]; ATRAZINE 40% dose, Low Enzyme): 90%
- NEC (necrosis) ([3]; ATRAZINE 40% dose, Low Enzyme): 90%
- PHY (phytotoxicity) ([3]; ATRAZINE 40% dose, Low Enzyme): 90%
- VIG (vigor) ([3]; ATRAZINE 40% dose, Low Enzyme): 90%
- CHL (chlorosis) ([3]; ATRAZINE 40% dose, No Enzyme): 70%
- NEC (necrosis) ([3]; ATRAZINE 40% dose, No Enzyme): 70%
- PHY (phytotoxicity) ([3]; ATRAZINE 40% dose, No Enzyme): 74%
- VIG (vigor) ([3]; ATRAZINE 40% dose, No Enzyme): 83%

SMILES: CCCCNC(=O)n1c(NC(=O)OC)nc2ccccc21 [BENOMYL fungicide, 1-(butylcarbamoyl)-2-benzimidazolecarbamic acid methyl ester]
- Inhibition of Fungal Growth ([4]; BENOMYL alone (1 mg/ml on leaves), 1:1 dilution of plant extract): -
- Inhibition of Fungal Growth ([4]; BENOMYL alone, 1:2 dilution): -
- Inhibition of Fungal Growth ([4]; BENOMYL alone, 1:4 dilution): -
- Inhibition of Fungal Growth ([4]; Cutinase (100 ug/ml) and BENOMYL, 1:1 dilution): +++
- Inhibition of Fungal Growth ([4]; Cutinase and BENOMYL, 1:2 dilution): ++
- Inhibition of Fungal Growth ([4]; Cutinase and BENOMYL, 1:4 dilution): +
- Inhibition of Fungal Growth ([4]; GC219 (12.6 mg/ml) and BENOMYL, 1:1 dilution): ++
- Inhibition of Fungal Growth ([4]; GC219 and BENOMYL, 1:2 dilution): +
- Inhibition of Fungal Growth ([4]; GC219 and BENOMYL, 1:4 dilution): -

SMILES: CN(C)C(=O)Nc1ccc(Cl)c(Cl)c1 [Diuron, diuron]
- Uptake, Radioactivity (cpm) ([1]; Herbicide table, Diuron, without any addition of protein): 5739 ± 1376 cpm
- Uptake, Radioactivity (cpm) ([1]; Herbicide table, pH 10, Cutinase 200 ug/ml, Active Enzyme): 8592 ± 803 cpm
- Uptake, Radioactivity (cpm) ([1]; Herbicide table, pH 10, Cutinase 200 ug/ml, Inactive Protein Control (A126)): 6878 ± 2126 cpm

- Background uptake, Radioactivity (cpm) [1]: 1292 cpm
SMILES: O=C(O)Cc1c[nH]c2ccccc12 [Indole Acetic Acid]

- Km [5]: 214 µM
- Vmax [5]: 802 μmole/min/mg protein
SMILES: CCCCCCCC(=O)Oc1ccc([N+](=O)[O-])cc1 [PNPC, p-nitrophenyl caprylate]

- Km [5]: 167 µM
- Vmax [5]: 214 μmole/min/mg protein
SMILES: CCCCCCCCCCCC(=O)Oc1ccc([N+](=O)[O-])cc1 [PNPL, p-nitrophenyl laurate]

- Km [5]: 183 µM
- Vmax [5]: 112 μmole/min/mg protein
SMILES: CCCCCCCCCCCCCCCC(=O)Oc1ccc([N+](=O)[O-])cc1 [PNPP, p-nitrophenyl palmitate]

- Uptake, Radioactivity (cpm) ([1]; pH 7): 2090 ± 549 cpm
- Uptake, Radioactivity (cpm) ([1]; pH 10): 507 ± 162 cpm
SMILES: O=c1cc[nH]c(=O)[nH]1 [Uracil, uracil]

- Uptake, Radioactivity (cpm) ([1]; pH 7): 785 ± 141 cpm
- Uptake, Radioactivity (cpm) ([1]; pH 10): 398 ± 43 cpm
SMILES: NC(N)=O [Urea, urea]
